Data from US9884049B2, “Microbicidal composition comprising an octoxynol and a quinolizidine alkaloid compound or a source thereof” (NOVICOL INTERNATIONAL HOLDING INC., priority 2014, dated 2018).

Tests used:
[1] = tested on: HIV-1MN; experiment: Anti-HIV activity, MAGI assay in TZM-b1 cells; conditions: for EC50: HIV-1MN
[2] = tested on: TZM-b1 cells; experiment: Cytotoxicity, CyQuant assay
[3] = tested on: HIV-1ADA-M; experiment: Anti-HIV activity, MAGI assay in TZM-b1 cells; conditions: for EC50: HIV-1ADA-M
[4] = tested on: TZM-b1 cells; experiment: Cytotoxicity, XTT assay
[5] = tested on: HIV; conditions: nearly 1,000 sex workers in Africa, versus placebo; cited from earlier work
[6] = Wash (washed four hours after, then 72 h)

| Compound | TI (CC50/EC50) ([1]; CyQuant/HIV-1MN, No wash) | TI (CC50/EC50) ([1]; CyQuant/HIV-1MN, Wash) | EC50 ([1]; No wash) | EC50 ([1]; Wash) | TI (CC50/EC50) ([1]; XTT/HIV-1MN, No wash) | TI (CC50/EC50) ([1]; XTT/HIV-1MN, Wash) | CC50 ([2]; No wash (72 h)) | CC50 [2, 6] | TI (CC50/EC50) ([3]; CyQuant/HIV-1ADA-M, No wash) | TI (CC50/EC50) ([3]; CyQuant/HIV-1ADA-M, Wash) | EC50 ([3]; No wash) | EC50 ([3]; Wash) | TI (CC50/EC50) ([3]; XTT/HIV-1ADA-M, No wash) | TI (CC50/EC50) ([3]; XTT/HIV-1ADA-M, Wash) | CC50 ([4]; No wash) | CC50 ([4]; Wash) | HIV infection rate, higher than with placebo [5] |
| --- | --- | --- | --- | --- | --- | --- | --- | --- | --- | --- | --- | --- | --- | --- | --- | --- | --- |
| O=C1CCC[C@@H]2[C@H]3CCCN4CCC[C@@H](CN12)[C@@H]34 [Matrine, matrine] | 8.91 | 7.06 | 0.0700 % (w/v) | 0.0500 % (w/v) | 4.46 | 22.08 | 0.6240 % (w/v) | 0.3530 % (w/v) | 3.01 | 0.89 | 0.2075 % (w/v) | 0.3948 % (w/v) | 1.50 | 2.80 | 0.3122 % (w/v) | 1.1040 % (w/v) |  |
| IGEPAL® CA-630 | 2.95 | 1.55 | 0.0012 % (w/v) | 0.0031 % (w/v) | 0.13 | 2.31 | 0.0036 % (w/v) | 0.0048 % (w/v) | 9.73 | 1.38 | 0.00037 % (w/v) | 0.0035 % (w/v) | 0.43 | 2.05 | 0.0002 % (w/v) | 0.0072 % (w/v) |  |
| nonoxynol-9 |  |  |  |  |  |  |  |  |  |  |  |  |  |  |  |  | about 50% |
